Publication PMC8775902, “Bifunctional Opioid/Melanocortin Peptidomimetics for Use in Neuropathic Pain: Variation in the Type and Length of the Linker Connecting the Two Pharmacophores” (International Journal of Molecular Sciences, 2022)
Entries after “also recorded” stand apart in the source; their conditions may differ. Like-named read-outs stand apart in the source and are kept apart here. Where a SMILES comes first, the peptide text is derived from it. Bridges are numbered along the chain shown (N, C = ends). [ ]: non-standard residue; d: D form. d2Nal = N[C@H](Cc1ccc2ccccc2c1)C(=O)O; Nle = CCCC[C@H](N)C(=O)O; Ahx = NCCCCCC(=O)O; βAla = NCCC(=O)O

Legend:
[1] = target: T1, delta opioid receptor (DOR) (Rattus norvegicus, UniProt P33533); assay: Competitive radioligand binding, [3H][Ile5,6]DELT II, rat brain homogenate; conditions: three determinations in duplicate, read-out: Affinity DOR IC50 ± SD
T1 construct: The determinations for opioid receptors were performed in rat brain homogenates; from tissue; host or cells: rat brain homogenate (membrane fraction)
Experimental: (§1) The determinations for opioid receptors were performed in rat brain homogenates by competitive displacement using selective radioligands, namely [^3H]DAMGO (a radioligand specific for MOR) and [^3H][Ile^5,6]DELT II (a radioligand specific for DOR). The measurement for melanocortin receptor MC4 was performed with the use of HEK293 MC4R cells and [^125I]-NDP-α-MSH radioligand.
(§2) The binding affinity of peptidomimetics 1–9 and reference compoundsTyr-D-Ala-Gly-Phe-NH2 for MOR and DOR was determined in competitive radioligand binding assays according to the method previously described. The specific radioligands were [^3H]DAMGO (DAMGO (a specific MOR ligand) and [^3H][Ile^5,6]DELT II]) (a specific DOR ligand). Membrane fractions of rat brain homogenate were incubated at 25 °C for 60 min in the presence of radioligands (0.5 nM) specific for each receptor and the increasing concentrations of the tested compounds. For measuring non-specific binding, 10 μM naloxone was used as the competitor for opioid receptors. The reactions were carried out in assay buffer containing Tris-HCl (pH 7.4) with an addition of bovine serum albumin (BSA) and protease inhibitors (bacitracin, bestatin, captopril). After the incubation, the binding reactions were terminated by rapid filtration with M-24 Cell Harvester (Brandel/USA) through GF/B Whatman glass fiber strips (pre-soaked with 0.5% PEI in order to minimize non-specific binding). Radioactivity retained on the filters was measured in MicroBeta LS, Trilux scintillation counter (PerkinElmer, USA). The experiments were repeated at least three times in duplicate. The IC50 value for each compound was determined using GraphPad Prism.

[2] = Experimental lipophilicity (P, log P); type: physicochemical
Text: We also studied experimentally the lipophilicity of the compounds 1–4. The obtained logP values vary only moderately (in the range −2.30 to −2.92, Table S2) and cannot account for the large differences in the antinociceptive activity. It seems then that the lipophilicity is not a factor responsible for the in vivo activity differences.

mu opioid receptor (MOR) = target: T2, mu opioid receptor (MOR) (Rattus norvegicus, UniProt P33535); assay: Competitive radioligand binding, [3H]DAMGO, rat brain homogenate; conditions: for IC50: [3H]DAMGO, rat brain homogenate, three determinations in duplicate, read-out: Affinity MOR IC50 ± SD; for Selectivity MOR/DOR: calculated as ratio of IC50 values
T2 construct: The determinations for opioid receptors were performed in rat brain homogenates; from tissue; host or cells: rat brain homogenate (membrane fraction)
Experimental: as §1, §2

[3] = target: melanocortin-4 receptor (MC4R) (Homo sapiens, UniProt P32245); assay: Radioligand competitive binding, [125I]-NDP-α-MSH, HEK293 MC4R cells; conditions: for IC50: [125I]-NDP-α-MSH, HEK293 MC4R cells, average of two assays in duplicates, read-out: Affinity MC4R IC50 ± SD; for Selectivity MC4R/DOR: calculated as ratio of IC50 values
Experimental: as §1
HEK293 MC4R were cultured in Earle’s Minimum Essential Medium (EMEM) supplemented with 10% heat inactivated fetal bovine serum (FBS). Cultures were grown under the humidified atmosphere of 5% CO2 in the air at 37 °C, up to 80% settlement of the bottle surface.
HEK293 MC4R cells were seeded around 10^5 cell/well in a 24-well plates two days before the experiment. Just before experiment, cells were washed twice with 0.5 mL of binding buffer (EMEM supplemented with 25 mM HEPES buffer, 0.2% bovine serum albumin, 1 mM 1,10-phenanthroline, 0.5 mg/L leupeptin and 200 mg/L bacitracin). […] The competition between ligands was ended by gentle withdrawal of medium solution, followed by cell washing with 2 × 0.5 mL of cold binding buffer, while the attached cells were lysed using 2 × 0.5 mL of 1 M NaOH. The radioactivity of collected solutions were measured on WIZARD^2 2480 Automatic Gamma Counter (PerkinElmer, Boston, MA, USA) in measurements with decay correlation protocol. All binding parameters were determined using GraphPad Prism Software (GraphPad Software Inc., San Diego, CA, USA). The competition assay determination was based on the normalized dose response in function of logarithm of inhibitor concentration (with variable slope) equation. All the EC50 values were calculated as an average of two separate competition assays performed in duplicates.

[4] = system: mice subjected to CCI (neuropathic pain); assay: Von Frey test in CCI-exposed mice (neuropathic pain, allodynia); type: in vivo; conditions: for ED50 (CL) Mice Subjected to CCI (Neuropathic Pain) Von Frey (Allodynia): 7–14 days after CCI, i.t. administration, 95% confidence limits
Experimental: (§3) The antinociceptive properties of the peptidomimetics 1–9 were assessed in two types of pain models. The first one included naive mice (acute pain), and the second one included mice exposed to chronic constriction injury (CCI, neuropathic pain model). In the latter of the models, two types of stimuli (mechanical pressure and low temperature) were considered. […] In naive mice, the tail-flick test was used to evaluate the analgesic effect (acute pain model). In CCI-exposed mice, hypersensitivity to mechanical and thermal stimuli was measured by von Frey and cold-plate tests, respectively.
(§4) The surgical procedure was performed according to Bennett and Xie. Under isoflurane anesthesia, an incision was made below the mouse’s right hipbone, and the sciatic nerve was exposed. Three ligatures with 4/0 silk thread were made around the nerve distal to the sciatic notch with 1 mm spacing, until a brief twitch in the respective hind limb was observed. After 7 days of recovery, mice were tested to assess the development of neuropathic pain behavior. […] Main experiments were conducted on days 7–14 after CCI surgical procedure.
Mechanical sensitivity to non-noxious stimuli was measured by applying a set of calibrated nylon monofilaments in increasing value (0.6–6 g; Stoelting, Wood Dale, IL, USA) on a tested hind paw plantar surface, until a behavioral response was observed. Response considered as pain behavior included rapid paw withdrawal, shaking, and licking. In the von Frey test, results are expressed as pressure (g) applied with a calibrated plastic filament to the midplantar surface of the mouse’s injured hind paw (cut-off: 6 g), which elicited a foot withdrawal response.
(§5) The behavioral data are presented as the percentage of the maximal possible antinociceptive effect (% MPE ± SEM), which was calculated according to the following equation: % MPE = [(TL − BL)/(CUT-OFF − BL)] × 100%, where BL is the baseline latency, and TL is the latency obtained after drug injection. The results of the experiments were statistically evaluated using one-way analysis of variance (ANOVA). The differences between the treatment groups throughout the study were further analyzed with Bonferroni post hoc tests. The Litchefield and Wilcoxon method was used to calculate the ED50 value (a dose necessary to produce a 50% response) with 95% confidence limits on quantal data.

[5] = system: mice subjected to CCI (neuropathic pain); assay: Cold plate test in CCI-exposed mice (neuropathic pain, hyperalgesia); type: in vivo; conditions: 7–14 days after CCI, i.t. administration, 95% confidence limits
Experimental: as §3, §4
Sensitivity to noxious thermal stimuli was assessed with usage of Cold/Hot Plate Analgesia Meter, (Ugo Basile, Comerio, Italy). The temperature of the plate was kept at 2 °C, and the cut-off latency was 30 s. The mice were placed on the cold plate, and the time until the hind paw was lifted was recorded, which was considered as a reaction to noxious cold stimulus.
as §5

naive mice (acute pain) = assay: Tail-flick test in naive mice (acute pain model); type: in vivo; conditions: for ED50 (CL) Naive Mice (Acute Pain) Tail-Flick: i.t. administration, 95% confidence limits; for analgesic effect in naive mice (acute pain), in words / ED50 Naive Mice (Acute Pain) Tail-Flick, class symbol: i.t.
Experimental: as §3
The tail-flick test was performed with use of Tail-Flick Analgesic Meter (Ugo Basile, Comerio, Italy) to evaluate the pain threshold to a thermal stimulus. During the procedure, an animal was placed on the apparatus surface and gently held by the experimenter. A beam of light was focused on a dorsal tail surface, approximately at 1 cm from the tail tip. When the animal flicked its tail, the timer stopped, and the recorded time (latency) was measured. The cut-off time to protect tissue damage was 9 s.
as §5

Chain of melanocortin-4 receptor (MC4R) (P32245 whole entry): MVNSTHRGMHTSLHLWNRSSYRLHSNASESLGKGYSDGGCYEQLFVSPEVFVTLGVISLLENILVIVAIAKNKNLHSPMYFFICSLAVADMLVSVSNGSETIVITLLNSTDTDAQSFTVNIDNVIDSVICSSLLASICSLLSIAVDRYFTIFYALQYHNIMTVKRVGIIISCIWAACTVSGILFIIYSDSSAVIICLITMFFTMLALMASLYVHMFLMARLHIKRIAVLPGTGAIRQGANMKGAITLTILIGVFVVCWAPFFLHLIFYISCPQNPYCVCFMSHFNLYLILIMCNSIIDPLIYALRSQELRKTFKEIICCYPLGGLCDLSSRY
T2 sequence (P33535 whole entry): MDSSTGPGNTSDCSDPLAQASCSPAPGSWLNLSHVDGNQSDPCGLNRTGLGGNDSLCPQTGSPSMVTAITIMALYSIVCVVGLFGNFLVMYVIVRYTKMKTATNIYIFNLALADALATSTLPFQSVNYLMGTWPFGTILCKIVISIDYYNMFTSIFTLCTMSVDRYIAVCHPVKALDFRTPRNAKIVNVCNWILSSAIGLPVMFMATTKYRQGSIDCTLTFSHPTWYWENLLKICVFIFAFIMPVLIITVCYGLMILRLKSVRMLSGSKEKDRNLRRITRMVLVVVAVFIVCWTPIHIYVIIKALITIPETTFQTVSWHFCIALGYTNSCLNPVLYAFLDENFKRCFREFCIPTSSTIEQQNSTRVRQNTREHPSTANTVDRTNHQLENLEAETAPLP
T1 sequence (P33533 whole entry): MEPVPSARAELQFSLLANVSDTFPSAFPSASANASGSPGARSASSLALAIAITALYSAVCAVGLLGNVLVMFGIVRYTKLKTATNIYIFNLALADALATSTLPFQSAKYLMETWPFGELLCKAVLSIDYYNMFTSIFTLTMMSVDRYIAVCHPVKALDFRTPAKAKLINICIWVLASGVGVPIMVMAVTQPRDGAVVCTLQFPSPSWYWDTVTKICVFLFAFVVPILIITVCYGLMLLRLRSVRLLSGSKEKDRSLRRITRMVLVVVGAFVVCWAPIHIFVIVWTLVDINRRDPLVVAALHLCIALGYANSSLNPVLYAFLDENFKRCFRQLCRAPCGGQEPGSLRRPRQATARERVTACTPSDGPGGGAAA

Molecule | IC50 [1] [nM] | logP ([2]; read-out: Lipophilicity Log P) | logP ([2]; read-out: Lipophilicity P) | IC50 (mu opioid receptor (MOR)) [nM] | Selectivity MOR/DOR (mu opioid receptor (MOR)) | IC50 [3] [nM] | Selectivity MC4R/DOR [3] | ED50 (CL) Mice Subjected to CCI (Neuropathic Pain) Von Frey (Allodynia) [4] | ED50 (CL) Mice Subjected to CCI (Neuropathic Pain) Cold Plate (Hyperalgesia) [5] | ED50 (CL) Naive Mice (Acute Pain) Tail-Flick (naive mice (acute pain)) | analgesic effect in naive mice (acute pain), in words (naive mice (acute pain)) | analgesic effect in CCI-exposed mice, in words ([4]; CCI mice, von Frey and cold plate tests, i.t.) | ED50 Naive Mice (Acute Pain) Tail-Flick, class symbol (naive mice (acute pain))
CCCC[C@H](NC(=O)[C@@H](C)NC(=O)[C@H](Cc1ccccc1)NC(=O)CNC(=O)[C@@H](C)NC(=O)[C@@H](N)Cc1ccc(O)cc1)C(=O)N[C@H]1CC(=O)NCCCC[C@@H](C(N)=O)NC(=O)[C@H](Cc2c[nH]c3ccccc23)NC(=O)[C@H](CCCNC(=N)N)NC(=O)[C@@H](Cc2ccc3ccccc3c2)NC(=O)[C@H](Cc2c[nH]cn2)NC1=O [Compound 1, ENK-D-Ala-SHU] (H-Y[dA]GF[dA][Nle]DH[d2Nal]RWK-NH2; lactam 7-12) | 14.5 ± 1.91 | -2.3 ± 0.02 | -2.3 | 69.6 ± 18.7 | 0.2 | 0.07 ± 0.01 | 207 |  |  |  |  |  | 
CCCC[C@H](NC(=O)CCNC(=O)[C@H](Cc1ccccc1)NC(=O)CNC(=O)[C@@H](C)NC(=O)[C@@H](N)Cc1ccc(O)cc1)C(=O)N[C@H]1CC(=O)NCCCC[C@@H](C(N)=O)NC(=O)[C@H](Cc2c[nH]c3ccccc23)NC(=O)[C@H](CCCNC(=N)N)NC(=O)[C@@H](Cc2ccc3ccccc3c2)NC(=O)[C@H](Cc2c[nH]cn2)NC1=O [Compound 2, ENK-β-Ala-SHU] (H-Y[dA]GF[βAla][Nle]DH[d2Nal]RWK-NH2; lactam 7-12) | 22.8 ± 7.49 | -2.33 ± 0.02 | -2.33 | 104 ± 29.1 | 0.2 | 0.12 ± 0.01 | 190 | 0.04 (0.03–0.68) nmol | 142 (31–654) nmol | 58.8 (27–128) nmol |  |  | 
CCCC[C@H](NC(=O)CCCCCNC(=O)[C@H](Cc1ccccc1)NC(=O)CNC(=O)[C@@H](C)NC(=O)[C@@H](N)Cc1ccc(O)cc1)C(=O)N[C@H]1CC(=O)NCCCC[C@@H](C(N)=O)NC(=O)[C@H](Cc2c[nH]c3ccccc23)NC(=O)[C@H](CCCNC(=N)N)NC(=O)[C@@H](Cc2ccc3ccccc3c2)NC(=O)[C@H](Cc2c[nH]cn2)NC1=O [Compound 3, ENK-Ahx-SHU] (H-Y[dA]GF[Ahx][Nle]DH[d2Nal]RWK-NH2; lactam 7-12) | 45.4 ± 32.3 | -2.43 ± 0.01 | -2.43 | 64 ± 34.6 | 0.7 | 1.83 ± 0.81 | 25 | 0.0002 (0.00005–0.001) nmol |  |  |  |  | 
CCCC[C@H](NC(=O)CCCCCNC(=O)CCCCCNC(=O)[C@H](Cc1ccccc1)NC(=O)CNC(=O)[C@@H](C)NC(=O)[C@@H](N)Cc1ccc(O)cc1)C(=O)N[C@H]1CC(=O)NCCCC[C@@H](C(N)=O)NC(=O)[C@H](Cc2c[nH]c3ccccc23)NC(=O)[C@H](CCCNC(=N)N)NC(=O)[C@@H](Cc2ccc3ccccc3c2)NC(=O)[C@H](Cc2c[nH]cn2)NC1=O [Compound 4, ENK-(Ahx)2-SHU] (H-Y[dA]GF[Ahx][Ahx][Nle]DH[d2Nal]RWK-NH2; lactam 8-13) | 22.3 ± 12.7 | -2.92 ± 0.02 | -2.92 | 5.47 ± 1.38 | 4.1 | 0.5 ± 0.16 | 45 | 0.01 (0.00002–7.8) nmol | 0.1 (0.004–3.4) nmol |  |  |  | 
ENK-4AMB-SHU [Compound 5] |  |  |  |  |  |  |  | 0.02 (0.005–0.5) nmol | 0.16 (0.1–0.2) nmol |  | lack of analgesic effect |  | 
ENK-4APhAc-SHU [Compound 6] |  |  |  |  |  |  |  | 0.02 (0.0002–1.03) nmol | 0.02 (0.0005–1.2) nmol | 42 (21–85) nmol | some analgesic activity |  | 
ENK-(Pro-Gly)2-SHU [Compound 8] |  |  |  |  |  |  |  |  |  | 5 (0.4–60.3) nmol |  | any analgesic effect was not observed; also recorded: very little if any activity | 
ENK-Pro-Gly-SHU [Compound 7] |  |  |  |  |  |  |  | 0.4 (0.3–0.6) nmol | 0.16 (0.07–0.34) nmol |  | impossible to calculate ED50 due to weak analgesic effect and poor dose dependency |  | # (weak analgesic effects, poor dose dependency, ED50 cannot be calculated)
[Dmt^1]ENK-Ahx-SHU [Compound 9] |  |  |  |  |  |  |  | 0.003 (0.000003–3.45) nmol | 0.009 (0.005–0.01) nmol |  | impossible to calculate ED50 due to weak analgesic effect and poor dose dependency |  | # (weak analgesic effects, poor dose dependency, ED50 cannot be calculated)
